≈ marks a conversion by molar mass, not a printed value. Each block holds one molecule with its values, some of them ahead of it.
What was measured:
Plasmodium falciparum [1] = test: Antimalarial activity against CQ-resistant Plasmodium falciparum K1; format: functional, organism-based
Plasmodium falciparum [2] = test: Antimalarial activity against Plasmodium falciparum; format: functional, organism-based
Plasmodium falciparum [3] = test: Antiplasmodial activity against CQ-sensitive Plasmodium falciparum NF54; format: functional, organism-based
Plasmodium falciparum [4] = test: Antimalarial activity against Plasmodium falciparum 3D7 at asexual erythrocytic stage assessed as parasite growth inhibition measured after 24 hrs by [3H]-hypoxanthine incorporation assay; format: functional, organism-based
Plasmodium falciparum [5] = test: Antimalarial activity against Plasmodium falciparum assessed as parasite growth inhibition incubated for 36 to 40 hrs by JSB staining based analysis; format: functional, organism-based
Plasmodium falciparum [6] = test: Antimalarial activity against Plasmodium falciparum 3D7 infected in A+ human erythrocytes assessed as reduction in parasite growth incubated for 72 hrs by SYBR Green I staining based analysis; format: functional, organism-based; details: 3D7, Erythrocyte
Plasmodium falciparum [7] = test: Antimalarial activity against Plasmodium falciparum Dd2 infected in A+ human erythrocytes assessed as reduction in parasite growth incubated for 72 hrs by SYBR Green I staining based analysis; format: functional, organism-based; details: Dd2, Erythrocyte
Plasmodium falciparum [8] = test: Antimalarial activity against Plasmodium falciparum K1 infected in A+ human erythrocytes assessed as reduction in parasite growth incubated for 72 hrs by SYBR Green I staining based analysis; format: functional, organism-based; details: K1, Erythrocyte
Plasmodium falciparum [9] = test: Antimalarial activity against CQ-resistant Plasmodium falciparum Dd2; format: functional, organism-based
[10] = Cytotoxicity against human erythrocytes; format: toxicity, cell-based, Erythrocyte

SMILES: C=CCn1cc(COc2ccc([C@@H]3[C@H](Oc4ccccc4)C(=O)N3c3ccccc3)cc2)nn1
- IC50 (Plasmodium falciparum [1]): 6.19 µM

- IC50 (Plasmodium falciparum [2]): 1.69 µM
SMILES: CC1=C(C(=O)Nc2ccc(Cl)cc2)C(c2ccc(OCc3cn(Cc4ccccc4)nn3)cc2)n2c(nc3ccccc32)N1 (stereo not drawn)

SMILES: O=C1c2ccccc2C(=O)N1[C@H]1C(=O)N(c2ccc(OCc3cn(Cc4ccccc4)nn3)cc2)[C@@H]1c1ccc(OCc2cn(Cc3ccccc3)nn2)cc1
- IC50 (Plasmodium falciparum [1]): 1.81 µM

- IC50 (Plasmodium falciparum [3]): 28 µM
SMILES: Clc1ccc2c(-n3cc(-c4ccccn4)nn3)ccnc2c1

- IC50 (Plasmodium falciparum [2]): 4.36 µM
SMILES: CC1=C(C(=O)Nc2ccc(F)cc2)C(c2ccc(OCc3cn(Cc4ccccc4)nn3)cc2)n2ncnc2N1 (stereo not drawn)

SMILES: Cc1cc(C)nc(NS(=O)(=O)c2ccc(-n3cc(COc4cc(=O)oc5ccccc45)nn3)cc2)n1
- IC50 (Plasmodium falciparum [4]): > 79.4 µM

- IC50 (Plasmodium falciparum [2]): 1.86 µM
SMILES: CC1=C(C(=O)Nc2ccccc2C)C(c2ccc(OCc3cn(Cc4ccccc4)nn3)cc2)n2ncnc2N1 (stereo not drawn)

SMILES: O=c1ccc2ccc(OCc3cn(-c4ccc(OCc5ccc([N+](=O)[O-])cc5)cc4)nn3)cc2o1
- IC50 (Plasmodium falciparum [5]): 1.2 µg/mL (≈ 2.55 µM)

SMILES: O=c1cc(OCc2cn(-c3ccc(S(=O)(=O)N4CCOCC4)cc3)nn2)c2ccccc2o1
- IC50 (Plasmodium falciparum [4]): 34.2 µM

SMILES: C[C@H]1[C@@H](OCCc2cn(-c3ccnc4cc(Cl)ccc34)nn2)O[C@@H]2O[C@@]3(C)CC[C@H]4[C@H](C)CC[C@@H]1[C@@]24OO3
- EC50 (Plasmodium falciparum [6]): 0.0088 µM
- EC50 (Plasmodium falciparum [7]): 0.0045 µM
- EC50 (Plasmodium falciparum [8]): 0.002 µM

SMILES: C=CCn1cc(COc2ccc([C@@H]3[C@H](Oc4ccccc4)C(=O)N3c3ccc(C)cc3)cc2)nn1
- IC50 (Plasmodium falciparum [1]): 8.43 µM

SMILES: Cc1c(-c2ccccc2)c2ccc(OCc3cn(-c4ccc(S(N)(=O)=O)cc4)nn3)cc2oc1=O
- IC50 (Plasmodium falciparum [4]): 3.68 µM

SMILES: C[C@H]1[C@H](OC(=O)CCC(=O)OCCCCc2cn(-c3ccnc4cc(Cl)ccc34)nn2)O[C@@H]2O[C@@]3(C)CC[C@H]4[C@H](C)CC[C@@H]1[C@@]24OO3
- EC50 (Plasmodium falciparum [6]): 0.0062 µM
- EC50 (Plasmodium falciparum [7]): 0.0044 µM
- EC50 (Plasmodium falciparum [8]): 0.0025 µM

SMILES: Cc1cc(=O)oc2cc(OCc3cn(-c4ccc(S(=O)(=O)N5CCOCC5)cc4)nn3)c(Cl)cc12
- IC50 (Plasmodium falciparum [4]): 50.4 µM

SMILES: NS(=O)(=O)c1ccc(-n2cc(COc3cc(=O)oc4ccccc34)nn2)cc1
- IC50 (Plasmodium falciparum [4]): 100 µM

SMILES: Cc1nc(-c2ccccc2)c(-c2ccccc2)c2cc(-c3cn(CCOC(=O)CCC(=O)O[C@@H]4O[C@@H]5O[C@]6(C)O[C@]57[C@@H](CC[C@@H](C)[C@@H]7C[C@H]6O)[C@H]4C)nn3)ccc12
- EC50 (Plasmodium falciparum [6]): 0.646 µM
- EC50 (Plasmodium falciparum [7]): 0.444 µM
- EC50 (Plasmodium falciparum [8]): 0.256 µM

SMILES: O=c1ccc2ccc(OCc3cn(-c4ccc(OCc5ccc(Br)cc5)cc4)nn3)cc2o1
- IC50 (Plasmodium falciparum [5]): 0.54 µg/mL (≈ 1.07 µM)

SMILES: Cc1nc(-c2ccccc2)c(-c2ccccc2)c2cc(-c3cn(CCOC(=O)CCC(=O)O[C@@H]4O[C@@H]5O[C@@]6(C)CC[C@H]7[C@H](C)CC[C@@H]([C@H]4C)[C@@]57OO6)nn3)ccc12
- EC50 (Plasmodium falciparum [6]): 0.0053 µM
- EC50 (Plasmodium falciparum [7]): 0.0048 µM
- EC50 (Plasmodium falciparum [8]): 0.0033 µM

SMILES: Cc1ccc(N2C(=O)[C@@H](Oc3ccccc3)[C@H]2c2ccc(OCc3cn(Cc4ccccc4)nn3)cc2)cc1
- IC50 (Plasmodium falciparum [1]): 15.5 µM

- IC50 (Plasmodium falciparum [2]): 1.84 µM
SMILES: CC1=C(C(=O)Nc2ccc(C)cc2)C(c2ccc(OCc3cn(Cc4ccccc4)nn3)cc2)n2ncnc2N1 (stereo not drawn)

SMILES: Br.O=[N+]([O-])c1ccc(Cn2cc(-c3ccccc3C[P+](c3ccccc3)(c3ccccc3)c3ccccc3)nn2)cc1
- IC50 (Plasmodium falciparum [9]): > 100 µg/mL
- CC50 [10]: > 100 µg/mL

- IC50 (Plasmodium falciparum [2]): 2.24 µM
SMILES: CC1=C(C(=O)Nc2cccc(Cl)c2)C(c2ccc(OCc3cn(Cc4ccccc4)nn3)cc2)n2ncnc2N1 (stereo not drawn)

SMILES: O=[N+]([O-])c1ccccc1Cn1cc(CO)nn1
- IC50 (Plasmodium falciparum [9]): 0.65 µg/mL (≈ 2.78 µM)
- CC50 [10]: 75.5 µg/mL (≈ 322 µM)

- IC50 (Plasmodium falciparum [2]): 1.53 µM
SMILES: CC1=C(C(=O)Nc2ccccc2C)C(c2ccc(OCc3cn(Cc4ccccc4)nn3)cc2)n2c(nc3ccccc32)N1 (stereo not drawn)

SMILES: COc1ccc(N2C(=O)[C@@H](Oc3ccccc3)[C@H]2c2ccc(OCc3cn(Cc4ccccc4)nn3)cc2)cc1OC
- IC50 (Plasmodium falciparum [1]): 5.14 µM

- IC50 (Plasmodium falciparum [2]): 0.99 µM
SMILES: CC1=C(C(=O)Nc2ccc(F)cc2)C(c2ccc(OCc3cn(Cc4ccccc4)nn3)cc2)n2c(nc3ccccc32)N1 (stereo not drawn)

SMILES: O=[N+]([O-])c1ccc(Cn2cc(CO)nn2)cc1
- IC50 (Plasmodium falciparum [9]): 0.62 µg/mL (≈ 2.65 µM)
- CC50 [10]: > 100 µg/mL

SMILES: C[C@H]1[C@@H](OCCCCc2cn(-c3ccnc4cc(Cl)ccc34)nn2)O[C@@H]2O[C@@]3(C)CC[C@H]4[C@H](C)CC[C@@H]1[C@@]24OO3
- EC50 (Plasmodium falciparum [6]): 0.0084 µM
- EC50 (Plasmodium falciparum [7]): 0.0061 µM
- EC50 (Plasmodium falciparum [8]): 0.0037 µM

SMILES: O=C1[C@@H](Oc2ccccc2)[C@@H](c2ccc(OCc3cn(Cc4ccccc4)nn3)cc2)N1c1ccc(OCc2cn(Cc3ccccc3)nn2)cc1
- IC50 (Plasmodium falciparum [1]): < 0.97 µM

SMILES: C[C@H]1[C@H](OC(=O)CCC(=O)OCCCc2cn(-c3ccnc4cc(Cl)ccc34)nn2)O[C@@H]2O[C@@]3(C)CC[C@H]4[C@H](C)CC[C@@H]1[C@@]24OO3
- EC50 (Plasmodium falciparum [6]): 0.0054 µM
- EC50 (Plasmodium falciparum [7]): 0.0046 µM
- EC50 (Plasmodium falciparum [8]): 0.0024 µM

SMILES: Cc1ccc(COc2ccc(-n3cc(COc4ccc5ccc(=O)oc5c4)nn3)cc2)cc1
- IC50 (Plasmodium falciparum [5]): 0.38 µg/mL (≈ 0.865 µM)

SMILES: C[C@H]1[C@H](OC(=O)CCC(=O)O)O[C@@H]2O[C@@]3(C)CC[C@H]4[C@H](C)CC[C@@H]1[C@@]24OO3 [ARTESUNATE]
- EC50 (Plasmodium falciparum [6]): 0.0144 µM
- EC50 (Plasmodium falciparum [7]): 0.0109 µM
- EC50 (Plasmodium falciparum [8]): 0.0052 µM
- IC50 (Plasmodium falciparum [9]): 0.002 µg/mL (≈ 0.0052 µM)
- CC50 [10]: > 100 µg/mL

SMILES: C=C[C@H]1CN2CC[C@H]1C[C@H]2[C@H](O)c1ccnc2ccc(OC)cc12 [QUININE]
- IC50 (Plasmodium falciparum [5]): 0.268 µg/mL (≈ 0.826 µM)
- IC50 (Plasmodium falciparum [2]): 0.083 µM
